Reference: patent publication US20200101034A1, “RAPID AND CONTROLLED DELIVERY OF COMPOSITIONS WITH RESTORED ENTOURAGE EFFECTS” (RECEPTOR HOLDINGS, INC., priority 2017, published 2020)
Read-outs that look alike come from different tables or passages of the source.

Columns and labels:
[1] = Cannabis/SNAC oral rat pharmacokinetic (PK) study; assay type: in vivo, rats; details: for AUC(0-t) / Tmax: rat, plasma, po; for AUC(0-t): read-out: AUC0-Tlast; for Tmax: read-out: time to reach the mean maximum plasma concentration (Tmax); for AUC0-Tlast versus the cannabis alone group: rats, oral, same cannabis extract dose in the presence of SNAC (250 mg/kg or 500 mg/kg)
Procedure: Example 4. Summary of cannabis/SNAC oral rat pharmacokinetic (PK) study.
Methods. Animals were dosed on Day 1 and a series of blood samples were collected over a period of 4 hours post dose for pharmacokinetic evaluation. Animals were euthanized following collection of their last blood sample.

[2] = tested on: study participants; assay: Onset and duration of action of orally administered cannabis/SNAC composition (200 mg SNAC), participant-reported euphoria/dysphoria; assay type: in vivo, human; details: 200 mg SNAC with cannabis concentrate, oral
Procedure: This study was designed to assess the utility of SNAC in enabling a rapid-acting oral form of cannabis.
Selection of Participants. Six study participants were recruited to ingest cannabis compositions and record the onset, duration, and intensity of cannabis-induced euphoria and/or dysphoria.
(§1) Formulations. The selected cannabis concentrate is commercially available and was provided to participants in an ethanol solution. The concentrate contains 8 mg THC per dose. It was selected because it contains a high percentage of THC, which provides a noticeable effect on user- reported “euphoria”.
(§2) Methods. For the Control experiment, each participant mixed the cannabis concentrate with 15 ml (one tablespoon) of aqueous ethanol, and immediately swallowed the mixture.
(§3) For both the Control experiment and the Test experiment, each participant recorded the time of dose administration, the time of onset of euphoria and/or dysphoria, and the observed level of euphoria and/or dysphoria in fifteen minute intervals for five hours following administration of the cannabis dose. Euphoria and dysphoria were reported using a scale value, in a range from 1-10.

[3] = tested on: study participants; assay: Onset and duration of action of orally administered cannabis/SNAC composition at a low SNAC dose (100 mg); assay type: in vivo, human; details: 100 mg SNAC with cannabis concentrate, oral
Procedure: Example 2. […] This study was designed to assess the utility of SNAC in enabling a rapid-acting oral form of cannabis at a low dose.
Selection of Participants. Three study participants were recruited to ingest cannabis compositions and record the onset, duration, and intensity of cannabis-induced euphoria and/or dysphoria.
as §1, §2, §3
Results. The results are combined with the data from Example 1 and are reported for all participants in FIG. 8.

| SMILES | AUC(0-t) [1] | Tmax [1] | AUC0-Tlast versus the cannabis alone group [1] | effect of the absorption enhancer on the duration of action of cannabis [2] | effect of the absorption enhancer on the duration of action of cannabis [3] | Tmax ([1]; 25 mg/kg) | Tmax ([1]; 50 mg/kg) |
| --- | --- | --- | --- | --- | --- | --- | --- |
| C=C(C)[C@@H]1CCC(C)=C[C@H]1c1c(O)cc(CCCCC)cc1O [CBD, cannabidiol] | 13.2 to 382 ng·h/mL | 0.25 to 1 h | comparable |  |  |  |  |
| O=C([O-])CCCCCCCNC(=O)c1ccccc1O.[Na+] [SNAC, sodium N-[8-(2-hydroxybenzoyl)amino] caprylate] |  |  |  | no effect | no effect |  |  |
| CCCCCc1cc(O)c2c(c1)OC(C)(C)[C@@H]1CCC(C)=C[C@@H]21 [THC, delta-9-tetrahydrocannabinol] | 171 to 1260 ng·h/mL |  | comparable |  |  | 1 h | 2 h |
